Converted amounts (≈) assume the structure as drawn. “Also recorded” adds a separate entry of the source. Where two headings read alike, the source gives them in different places. One block for each compound: values may come before it. Where a SMILES comes first, the peptide text is derived from it. [ ]: non-standard residue; d: D form. Sar = CNCC(=O)O
Tests used:
[1] = system: human sclera-choroid-RPE (SCRPE); assay: In vitro transport of transporter substrate cassette across human sclera-choroid-RPE
Experimental: (§1) In vitro transport studies across human cornea and sclera-choroid-RPE (SCRPE) were carried out according to previously published method using the cassette dosing approach. Briefly, cassette of drug transporter substrate including Gly-Sar (PEPT), L-tryptophan (ATB^0+), MPP^+ (OCT), and phenyl acetic acid (MCT) at concentration of 100 μM in assay buffer was prepared. Briefly, the human eyes were washed with assay buffer and cleaned from muscle and conjunctiva tissues, and anterior and posterior parts were separated by giving circumferential cut behind the limbus. Small sclera part was left with cornea, which helps in mounting of cornea on Ussing chambers. Neural retina was separated from the choroid-RPE by filling the eye cup with assay buffer, and floating retina was collected. After separation of retina, eye cup was divided into two rectangular pieces (˜1.5×1.5 cm) of sclera-choroid-RPE. Isolated tissues were mounted on modified Ussing chambers (Navicyte, Sparks, Nev.) such that the episcleral side of SCRPE or epithelial side of cornea was facing the donor chamber and retinal side or endothelial side of cornea is facing the receiver chamber. To study the effect of directionality on transport, one set of Ussing chambers mounted so that sclera side facing the donor side and another set was mounted so that choroid-RPE facing the donor side. The effect of directionality of transport across cornea was not evaluated. The chambers were filled with 1.5 ml of assay buffer with (donor side) or without (receiver side) the cocktail of drug transporter substrates. For study of effect of transporter inhibitors, cocktail mixture (500 μM) of transporter inhibitor was added on both donor and acceptor side.
(§2) During the transport study, the bathing fluids were maintained at 37° C. using a circulating warm water and pH 7.4 using 95% air-5% CO2 aeration. Samples were collected (200 μL) form receiver side every hour for 6 hr and the lost volume was compensated with fresh assay buffer pre-equilibrated at 37° C. The drug levels were analyzed using a LC-MS/MS assay. Permeation data were corrected for dilution of the receiver solution with sample volume replenishment.
Analytes concentrations in transport study samples were analyzed using LC-MS/MS method after 5-fold dilution with acetonitrile to reduce the salt concentrations. Cassette analysis method was developed for simultaneous analysis of Gly-Sar, L-tryptophan and MPP^+. Phenyl acetic acid was analyzed separately in negative ionization method and normal phase separation method. An API-3000 triple quadrupole mass spectrometry (Applied Biosystems, Foster City, Calif., USA) coupled with a PerkinElmer series-200 liquid chromatography (Perkin Elmer, Walthm, Mass., USA) system was used for analysis. Gly-Sar, L-tryptophan and MPP^+ were separated on Supelco C-5 column (2.1×10 mm, 3 μm) using water containing 0.1% formic acid (A) and acetonitrile:methanol (50:50 v/v) containing 0.1% formic acid (B) as mobile phase and a linear gradient elution at a flow rate of 0.3 ml/min with total run time of 9 min. Phenyl acetic acid was separated in normal phase separation mode using Obelisc-N silica column (2.1×10 mm, 3 μM) using 5 mM ammonium formate, pH 3.5 (A) and acetonitrile (B) as mobile phase in linear gradient mode at flow rate of 0.3 ml with total run time of 6 min. Gly-Sar, L-tryptophan, and MPP^+ were analyzed in positive ionization mode with following multiple reaction monitoring (MRM) transitions: 147→90 (Gly-Sar); 205→188 (L-tryptophan); 170→128 (MPP^+). Phenyl acetic acid was analyzed in negative ionization mode with following multiple reaction monitoring (MRM) transitions: 135→91 (Phenyl acetic acid).

human cornea = assay: In vitro transport of transporter substrate cassette across human cornea; conditions: human cornea
Experimental: as §1, with “The effect of directionality of transport across cornea was not evaluated.” left out
as §2
Analytes concentrations in transport study samples were analyzed using LC-MS/MS method after 5-fold dilution with acetonitrile to reduce the salt concentrations. […] Phenyl acetic acid was analyzed separately in negative ionization method and normal phase separation method. […] Gly-Sar, L-tryptophan, and MPP^+ were analyzed in positive ionization mode with following multiple reaction monitoring (MRM) transitions: 147→90 (Gly-Sar); 205→188 (L-tryptophan); 170→128 (MPP^+). Phenyl acetic acid was analyzed in negative ionization mode with following multiple reaction monitoring (MRM) transitions: 135→91 (Phenyl acetic acid).

[2] = system: calf sclera-choroid-RPE (SCRPE); assay: In vitro transport of substrate cassette across normoxic and hypoxic calf SCRPE; conditions: for transport across hypoxic vs normoxic tissue (in words): cassette 100 μM
Excerpt: (§3) Animals used in this study were those that were sacrificed as part of other experiments approved by the Institutional Animal Care Committee of the Colorado State University (Fort Collins) and University of Colorado Anschutz Medical campus. Hypoxic and normoxic calf eyes were obtained from the Department of Physiology, School of Veterinary Medicine, Colorado State University (Fort Collins, Colo.). Briefly, 1 day old male Holstein calves (n=4) were kept in hypobaric hypoxic chambers (PB=445 mm Hg) for 2 weeks. For control experiment, age matched calves (n=4) were kept at ambient altitude (PB=650 mm Hg) and normoxia for two weeks. Hypoxic and normoxic rat eyes were obtained from the Department of Medicine, University of Colorado Anschutz Medical campus (Aurora, Colo.). Sprague Dawley rats (n=4) were maintained in hypobaric hypoxic chambers (PB=380 mm Hg) for 6 weeks and age matched controls were kept at ambient pressure and normoxia.
(§4) In vitro transport studies across hypoxic and control calf cornea and sclera-choroid-RPE (SCRPE) were carried using cassette dosing approach. A cassette of drug transporter substrates, Gly-Sar (PEPT), valacylovir (ATB^0+), MPP^+ (OCT), and phenylacetic acid (MCT) at a concentration of 100 μM each in assay buffer was prepared. Briefly, the calf eyes were harvested immediately after euthanasia and transferred to the laboratory on ice. Upon arrival in the lab, the eyes were washed with assay buffer and cleaned from muscle and unwanted tissues. Anterior and posterior parts were separated by circumferential cut at the limbus. Vitreous was removed and the neural retina was separated from the choroid-RPE by filling the eye cup with assay buffer. The retina afloat in assay buffer was isolated and the eye cup was divided into two pieces (˜1.5×1.5 cm) of sclera-choroid-RPE. Isolated tissues were mounted on modified Ussing chambers (Navicyte, Sparks, Nev.) such that the episcleral side of SCRPE or epithelial side of cornea was facing the donor chamber and retinal side or endothelial side of the cornea was facing the receiver chamber. The chambers were filled with 1.5 ml of assay buffer at 37° C. with (donor side) or without (receiver side) the cocktail of drug transporter substrates. For the study of effect of transporter inhibitors, cocktail mixture (500 μM) of transporter inhibitors was added on both donor and acceptor sides.
(§5) During the transport study, the bathing fluids were maintained at 37° C. using circulating warm water. The pH of the fluids was maintained at pH 7.4 using 95% air-5% CO2 aeration. Samples were collected (200 μL) from receiver side every hour for 6 hours and the removed volume was replaced with fresh assay buffer pre-equilibrated to 37° C. Drug levels were analyzed using a LC-MS/MS assay. Permeation data were corrected for dilution of the receiver concentrations with sample volume replenishment.
(§6) Analyte concentrations in transport study samples were measured using LC-MS/MS method after 5-fold dilution with acetonitrile to reduce the salt concentrations. A cassette analysis method was developed for simultaneous analysis of Gly-Sar, valacylovir, and MPP Phenyl acetic acid was analyzed separately with a negative ionization method and a normal phase separation method. An API-3000 triple quadrupole mass spectrometry (Applied Biosystems, Foster City, Calif., USA) coupled with a PerkinElmer series-200 liquid chromatography (Perkin Elmer, Waltham, Mass., USA) system was used for analysis. Gly-Sar, valacylovir and MPP were separated on Supelco C-5 column (2.1×10 mm, 3 μm) using water containing 0.1% formic acid (A) and acetonitrile:methanol (50:50 v/v) containing 0.1% formic acid (B) as mobile phase. A linear gradient elution at a flow rate of 0.3 ml/min with a total run time of 9 min was employed. Phenyl acetic acid was separated in normal phase separation mode on Obelisc-N silica column (2.1×10 mm, 3 μM) using 5 mM ammonium formate at pH 3.5 (A) and acetonitrile (B) as mobile phase.

calf cornea = assay: In vitro transport of substrate cassette across normoxic and hypoxic calf cornea
Excerpt: as §3, §4, §5, §6

[3] = system: New Zealand white rabbit cornea; assay: In vitro transport across rabbit cornea (Ussing chamber); format: in vitro ADME
Experimental: (§7) In vitro transport of […], and GFX-LYS were carried out across the New Zealand white rabbit cornea and sclera-choroid-[…]). Rabbit eyes were obtained within 24 hr of harvesting from Pel-Freez Biologicals (Rogers, Ark.) and shipped overnight in Hank's balanced salt solution on wet ice. Eyes were used immediately upon arrival. Eyes were washed with assay buffer and cleaned from the muscle and unwanted tissues. […] The small part of the sclera left with cornea helps in mounting the cornea on Ussing chambers. For isolation of the SCRPE, anterior and posterior parts were separated by a circumferential cut at the limbus. […] After separation of the retina, the eye cup was flattened with small cuts around the globe. […] A circulating water bath was used to maintain the temperature at 37° C. during the transport study. The pH of the assay buffer was maintained at 7.4 using 95% air-5% CO2 aeration which also helps in stirring of bathing solutions. Samples were collected (200 μL) from the receiver side every 30 minute for 3 hr and the lost volume was replaced with fresh assay buffer pre-equilibrated at 37° C. GFX levels were analyzed using an LC-MS/MS assay. […] GFX concentrations in the transport study and ocular tissue samples were analyzed using a validated LC-MS/MS method. […] Chromatographic separation of GFX and the internal standard moxifloxacin was performed on Obelisc C18 column (2.1×10 mm, 3 μm). Elution of analytes was performed using linear gradient elution with mobile phase consisting of 5 mM ammonium formate (pH 3.5) and acetonitrile (pH 3.5) with a flow rate of 300 μl/min and total run time of 6 min.

[4] = system: New Zealand white rabbit sclera-choroid-RPE (SCRPE); assay: In vitro transport across rabbit sclera-choroid-RPE (Ussing chamber); format: in vitro ADME
Experimental: as §7

conjunctiva = assay: In vitro transport of GFX prodrugs across conjunctiva; format: in vitro ADME, Rabbit
physchem = conditions: water for injection

Structure (SMILES): C[n+]1ccc(-c2ccccc2)cc1.[I-] [MPP^+, MPP^+ iodide]
- sclera to retina transport in presence of transporter specific inhibitor (in words) ([1]; human SCRPE, inhibitor cocktail 500 μM): significantly inhibited
- inhibition of sclera to retina transport in presence of specific inhibitors ([1]; human SCRPE, inhibitor cocktail 500 μM (metformin for MPP+)): 1.7 fold
- sclera to retina transport compared with retina to sclera transport (in words) ([1]; human SCRPE, substrate cassette 100 μM): significantly higher
- transport lower in presence of OCT inhibitor metformin (human cornea): 2.6 fold
- transport in presence of transporter inhibitor (in words) (human cornea; apical to basal, inhibitor cocktail 500 μM): significantly inhibited
- apparent permeability (Papp) across hypoxic vs normoxic tissue (in words) ([2]; calf SCRPE): significantly higher across normoxic SCRPE than hypoxic SCRPE
- transport across hypoxic vs normoxic tissue (in words) ([2]; calf SCRPE): significantly decreased in hypoxic calf SCRPE
- transport across hypoxic vs normoxic tissue (in words) ([2]; calf SCRPE, listed as MPP+): significantly higher across normoxic calf SCRPE than hypoxic calf SCRPE
- decrease in cumulative % transport across hypoxic tissue ([2]; hypoxic vs normoxic calf SCRPE): 61%
- apparent permeability (Papp) across hypoxic vs normoxic tissue (in words) (calf cornea; calf cornea): significantly higher across normoxic cornea than hypoxic cornea
- transport across hypoxic vs normoxic tissue (in words) (calf cornea; calf cornea, cassette 100 μM): significantly higher across normoxic calf cornea than hypoxic calf cornea
- decrease in cumulative % transport across hypoxic tissue (calf cornea; hypoxic vs normoxic calf cornea): 49%

- sclera to retina transport higher than retina to sclera transport [1]: 1.6-2.0 fold
Structure (SMILES): CN(CC(=O)O)C(=O)CN [Gly-Sar] (H-Gly-[Sar]-OH)
- apparent permeability (Papp) across hypoxic vs normoxic tissue (in words) [2]: significantly higher across normoxic SCRPE than hypoxic SCRPE
- apparent permeability (Papp) across hypoxic vs normoxic tissue (in words) (calf cornea): significantly higher across normoxic cornea than hypoxic cornea

- sclera to retina transport higher than retina to sclera transport ([1]; human, 6 h, 100 μM, pH 7.4): 1.6-2.0 fold
Structure (SMILES): N[C@@H](Cc1c[nH]c2ccccc12)C(=O)O [L-tryptophan]

- cumulative % transport / permeability compared with GFX (in words) [3]: significantly (p<0.01) higher than GFX
- transport in presence of nicotinic acid (competitive inhibitor of MCT) ([4]; SCRPE): not across SCRPE
- cumulative % transport / permeability compared with GFX (in words) ([4]; rabbit SCRPE): significantly (p<0.01) higher than GFX
- cumulative % transport compared with GFX (in words) (conjunctiva): significantly (p<0.01) higher than GFX
- solubility (physchem): 3010 µg/mL (≈ 6.54 mM)
Structure (SMILES): COc1c(N2CCNC(C)C2)c(F)cc2c(=O)c(C(=O)NCCCC(=O)O)cn(C3CC3)c12 (stereo not shown) [GFX-MCT, 4-(1-cyclopropyl-6-fluoro-8-methoxy-7-(3-methylpiperazin-1-yl)-4-oxo-1,4-dihydroquinoline-3-carboxamido)butanoic acid]
- transport in presence of nicotinic acid (competitive inhibitor of MCT) (conjunctiva): significantly inhibited; also recorded: only inhibited by nicotinic acid across conjunctiva

Source: patent US20130190324A1, “TOPICAL OCULAR DRUG DELIVERY” (The Regents of the University of Colorado, a body corporate, priority 2011, published 2013)
